Experiments:
[1] = Stability of azacitidine solution as a function of the preparation temperature; assay type: physicochemical
[2] = Content of bacterial endotoxin; conditions: excipient used in Example 3
[3] = temperature of azacitidine solution higher than 6° C.

SMILES | Stability of azacitidine in solution, compared between temperatures ([1]; solution prepared at 4-6° C. compared to 2-3° C.) | Stability of azacitidine in solution ([1]; temperature for preparing azacitidine solution controlled at 2-6° C.) | Content of azacitidine in solution [1, 3] | Related substances in solution [1, 3] | Content of bacterial endotoxin in excipient [2]
Nc1ncn([C@@H]2O[C@H](CO)[C@@H](O)[C@H]2O)c(=O)n1 [azacitidine, Azacitidine] | the same stability | good stability | significantly decreased | significantly increased | –
OC[C@@H](O)[C@@H](O)[C@H](O)[C@H](O)CO [mannitol, Mannitol] | – | – | – | – | 2.5 EU/g

Reference: patent US10617649B2 (Zhejiang Huahai Pharmaceutical Co., Ltd, priority 2016, dated 2020)
